Kd data for 78 compounds are collected here from PubChem BioAssay AID608 (Sanford-Burnham Center for Chemical Genomics, 2007).

Structures are written as SMILES. Activity calls are given as the source filed them. How the calls were made is not given here. A value given as a limit tells only on which side of the number the result lay.

The target in this experiment is Peptidyl-prolyl cis-trans isomerase FKBP1A (Homo sapiens) (UniProt P62942). Description: small-molecule binding to FKBP12 – biophysical, NMR detection (AID 608). Particulars: purified FKBP12.
Sequence of Peptidyl-prolyl cis-trans isomerase FKBP1A (Homo sapiens) (P62942 whole entry, looked up): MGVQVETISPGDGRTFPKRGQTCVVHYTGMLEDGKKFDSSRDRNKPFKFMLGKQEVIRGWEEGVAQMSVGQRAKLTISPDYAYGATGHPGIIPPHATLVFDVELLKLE
With `Cc1cc(C)nc(/N=C(/N)Nc2cccc(F)c2)n1`, the Kd (as a rule, the constant that tells how readily two partners part at equilibrium) was > 4 mM (inactive).
Turning to `COC1(C)CCC2OC2(C)CCC2C1CC2(C)C` (stereo not drawn), the Kd is > 4 mM (inactive).
Turning to `CC(=O)N1C(=S)NC(=O)/C1=C\c1cccnc1`, the Kd was > 4 mM (inactive).
As for `NCc1ccc(-c2csnn2)cc1`, the Kd is > 4 mM (inactive).
For `Cc1noc(-c2ccccc2)c1C(=O)O`, the Kd is > 4 mM (inactive).
Regarding `O=C(Nc1ccon1)c1cccc(Cl)c1`, the Kd was > 4 mM (inactive).
On to `CCc1cccc(C)c1NC(=O)c1cc(C)oc1C`, for which the Kd was > 4 mM (inactive).
As to `CCNS(=O)(=O)c1cc(Br)ccc1OC`, the Kd was > 4 mM (inactive).
For the compound `Nc1cc(=O)[nH]c(=O)n1Cc1ccco1`, the Kd is > 4 mM (inactive).
In the case of `O=C(O)C1Cc2ccccc2O1` (stereo not drawn), the Kd was > 4 mM (inactive).
As to `Cc1c(C(=O)Nc2ccncc2)oc2c1C(=O)CC(C)(C)C2`, the Kd was > 4 mM (inactive).
In the case of `COc1ccccc1Nc1nncc(=O)[nH]1`, the Kd was > 4 mM (inactive).
Consider `CC(=O)c1cccc(NC(=O)N2CCc3ccccc3C2)c1`, for which the Kd is > 4 mM (inactive).
In the case of `CC(=O)Nc1ccccc1OCC(N)=O`, the Kd was > 4 mM (inactive).
On to `CSc1nc(C)cc(-n2ccc(=O)[nH]c2=O)n1`, for which the Kd was > 4 mM (inactive).
With `CN1CCN(C(=O)c2ccccc2N)CC1` the figure was > 4 mM (inactive); with `CCOC(=O)c1csc(N)n1`, > 4 mM (inactive); with `O=C1NC(=S)NC(=O)C1=Cc1ccco1`, > 4 mM (inactive).
On to `CCc1ccccc1OCC(=O)N1CCOCC1`, for which the Kd is > 4 mM (inactive).
As for `CCSc1nnc(-c2ccccc2N)c(=O)[nH]1`, the Kd was > 4 mM (inactive).
With `COc1ccc(C(=O)O)cc1OC`, the Kd is > 4 mM (inactive).
Consider `OCc1ccc(N2CCOCC2)nc1`, for which the Kd was > 4 mM (inactive).
With `Cc1n[nH]c(=S)n(/N=C/c2ccccc2)c1=O`, the Kd was > 4 mM (inactive).
As for `CC(=O)Nc1ccccc1-c1ccccc1NC(C)=O`, the Kd was > 4 mM (inactive).
With `O=C(O)C1Cc2ccccc2N1` (stereo not drawn) the figure was > 4 mM (inactive); with `COC(=O)C[C@H]1C2(C)CC34OC5(C)O[C@@]6([C@H](OC)C(OC(=O)C(C)C)[C@]7(C)C(/C(=C(/OC)C(C)C)C(=O)O[C@H]7c7ccoc7)[C@@]6(O5)[C@H](OC)[C@@]3(OC)C2OC(C)=O)[C@]14C` (stereo partly drawn), > 4 mM (inactive); with `N=Nc1c(O)[nH]c2ccccc12`, > 4 mM (inactive).
`NC(=O)C12CC3CC(C1)C(=O)C(C3)C2`: the Kd is > 4 mM (inactive).
Consider `CC1=CC2C(CC1=O)C(C)=CCC2C(C)C` (stereo not drawn), for which the Kd is > 4 mM (inactive).
Regarding `COc1ccc2c(c1)O[C@@H]1COc3cc(OC)c(OC)cc3[C@@H]1C2=O`, the Kd was > 4 mM (inactive).
Consider `CC1(C)NCCN2C(=O)CSC21` (stereo not drawn), for which the Kd is > 4 mM (inactive).
For `Cc1ccc2cccc(SCC(=O)N3CCOCC3)c2n1`, the Kd entry was “inactive”.
As to `NC(C(=O)O)C(O)c1ccccc1` (stereo not drawn), the Kd was > 4 mM (inactive).
Consider `O=C(O)C1CSC2(CCCCC2)N1` (stereo not drawn), for which the Kd was > 4 mM (inactive).
`Nc1ccc(C2SCCS2)cc1`: the Kd was > 4 mM (inactive).
In the case of `O=C(O)c1ccc2snnc2c1`, the Kd was > 4 mM (inactive).
As for `Cc1ccc(C(=O)n2cnnc2N)cc1C`, the Kd was > 4 mM (inactive).
For `Cc1sc2nc(C)n(NC(N)=O)c(=O)c2c1C`, the Kd was > 4 mM (inactive).
With `O=C1CCC(c2cccs2)=NN1` the figure was > 4 mM (inactive); with `COC1C=CC23c4cc5c(cc4CN(CC2O)[C@@H]3C1)OCO5` (stereo partly drawn), > 4 mM (inactive); with `O=C(O)c1ccc2c(c1)CCO2`, > 4 mM (inactive).
For `Nc1nncn1C(=O)c1c(Cl)cccc1Cl`, the Kd was > 4 mM (inactive).
With `OCc1cccc2c1OCO2` the figure was > 4 mM (inactive); with `Fc1cccc(Cl)c1CN1CCNCC1`, > 4 mM (inactive); with `COc1ccc(-c2coc3c(O)c(OC)ccc3c2=O)cc1`, > 4 mM (inactive).
Turning to `Cc1cc(=O)n(CC(C)C)c(O)c1C#N`, the Kd is > 4 mM (inactive).
With `COc1ccc(NC(=O)C(N)=O)cc1Cl` the figure was > 4 mM (inactive); with `COC(CC(=O)O)c1nc2ccccc2s1` (stereo not drawn), > 4 mM (inactive); with `O=c1/c(=C/c2cccs2)sc2ncnn12`, > 4 mM (inactive).
On to `O=C1CSC(=Nc2ccc(C(=O)O)cc2)N1`, for which the Kd was > 4 mM (inactive).
As to `CCNC(=S)Nc1c(C)n(C)n(-c2ccccc2)c1=O`, the Kd was > 4 mM (inactive).
Regarding `COc1cc(OC)c2c(=O)c(-c3ccc4c(c3)OCO4)coc2c1`, the Kd is > 4 mM (inactive).
Regarding `OCc1ncoc1-c1ccccc1`, the Kd was > 4 mM (inactive).
For the compound `COc1cc(/C=C/C(=O)O)cc(OC)c1OC`, the Kd is > 4 mM (inactive).
With `CCS(=O)(=O)N1CCN(c2ccccc2F)CC1` the figure was > 4 mM (inactive); with `CC[C@@]1(O)C[C@H](O)c2c(cc3c(c2O)C(=O)c2c(O)ccc(O)c2C3=O)[C@H]1C(=O)OC`, > 4 mM (inactive).
Consider `NCc1cccc2c1OCCCO2`, for which the Kd is > 4 mM (inactive).
Consider `CCCNC(=O)CSc1ncccc1C(=O)O`, for which the Kd was > 4 mM (inactive).
Consider `Cc1nc2ccccc2c(=O)n1CCCO`, for which the Kd is > 4 mM (inactive).
For the compound `O=c1c(O)c(-c2ccccc2)oc2ccc3occc3c12`, the Kd was > 4 mM (inactive).
On to `CC(=O)c1nnc2cc(C)nn2c1C`, for which the Kd is > 4 mM (inactive).
In the case of `O=C(/C(=N\O)n1cncn1)c1ccccc1Cl`, the Kd is > 4 mM (inactive).
On to `O=C(O)C1COc2ccccc2C1` (stereo not drawn), for which the Kd was > 4 mM (inactive).
With `NC(=O)CCS(=O)(=O)CCN1CCOCC1` the figure was > 4 mM (inactive); with `OCc1csc(-c2cccs2)n1`, > 4 mM (inactive); with `CCOC(=O)c1[nH]cnc1C(=O)OC(C)C`, > 4 mM (inactive).
As to `CC(=O)c1csc(-c2cc(C)on2)n1`, the Kd is > 4 mM (inactive).
For `CC(N)C(=O)c1ccco1` (stereo not drawn), the Kd was > 4 mM (inactive).
As for `O=P(c1ccccc1)(c1ccccc1)C1CCOCC1`, the Kd is > 4 mM (inactive).
For the compound `Cn1nnc2cc(CN)ccc21`, the Kd was > 4 mM (inactive).
Regarding `N#CCN1C(=O)c2ccccc2S1(=O)=O`, the Kd is > 4 mM (inactive).
For `Nc1ccc2[nH]ncc2c1`, the Kd is > 4 mM (inactive).
On to `O=c1[nH]cc(COCc2ccccc2)c(=O)[nH]1`, for which the Kd is > 4 mM (inactive).
As for `O=CN1CCN(C(=O)c2ccccc2F)CC1`, the Kd was > 4 mM (inactive).
As to `NC(=O)c1ccc(N=Cc2ccc[nH]2)cc1`, the Kd was > 4 mM (inactive).
Regarding `COCC(=O)Nc1nc2ccc(C)cc2s1`, the Kd is > 4 mM (inactive).
For the compound `Fc1ccc(Br)cc1/C=N/n1cnnc1`, the Kd is > 4 mM (inactive).
On to `NC(=O)NC1NC(=O)NC1=O` (stereo not drawn), for which the Kd was > 4 mM (inactive).
